Laboratory results as given in US20200345725A1, “Methods and Compositions for Treating Cancer” (Omeros Corporation, priority 2019, published 2020).

Assays:
Format in all cases: cell-based
human PBMCs [1] = assay: Treg (FoxP3/Helios) flow cytometry in stimulated human PBMC
Experimental: (§1) A fraction of the cells was taken for staining on day 3 post-stimulation, while the rest of the cells were split 1:4 with fresh medium and used for staining on day 7 post-stimulation. To determine the fraction of natural Treg (nTreg) cells (FoxP3^+Helios^+), PBMCs were washed, stained with fluorescently labeled anti-CD4 antibodies, fixed, permeabilized and stained with a mixture of fluorescent anti-FoxP3 and anti-Helios antibodies. Labeled cells were analyzed by flow cytometry for populations stained for these three markers. Each experiment was performed in triplicate and was repeated five times.
as §1, with “(FoxP3^+Helios^−),” for “(FoxP3^+Helios^+),”, “three” for “five”
as §1, with “day 2” for “day 3”, “(FoxP3^+Helios^+), PBMC” for “(FoxP3^+Helios^+), PBMCs”

mouse splenocytes = assay: IL-2 in stimulated splenocyte cultures from WT or GPR174 KO mice; conditions: 48 hours; 10 μM; vs vehicle
Experimental: GPR174 knockout (KO) mice (referred to also as “FKSG79”) were generated as described in Gragerov A. et al., PNAS vol 104(36): 14406-14411, 2007. Splenocyte cultures were generated from four GPR174 KO mice and four wild-type (WT) mice. Single-cell suspension of individual mouse spleens were pelleted by centrifugation, resuspended in RBC lysis buffer to remove erythrocytes, spun down again and resuspended in T cell medium (RPMI-1640, 10% FBS, 6 mM L-Glutamine, 12.5 mM HEPES, 50 μM 2-mercaptoethanol, Pen/Strep). Thus, prepared splenocytes were plated into 96-well plates at a density of 3×10^6 cells/mL, 250 μL/well and stimulated with 100 ng/mL of anti-CD3 antibodies and 100 ng/mL of anti-CD28. Cells were treated with either vehicle (0.1% DMSO) or GPR174 inhibitory Compound 10 (10 μM). 48 hours later, cell supernatants were analyzed for cytokine levels using LEGENDplex mouse Th1 cytokine detection kit (BioLegend). Four GPR174 KO and four WT spleens were analyzed, each in triplicate.

[2] = system: co-cultured mouse C57BL/6+DBA1 splenocytes; assay: Cytokines in C57BL/6 + DBA1 splenocyte co-culture; conditions: 30 μM; day 6 after mixing
Experimental: In order to stimulate T cells in mice, splenocytes obtained from two different mouse strains, C57BL/6 and DBA1, were mixed in culture.
The effect of compound 10 on production of cytokines (IFN-γ, IL-5, TNF-α, IL-2, IL-6, IL-4, IL-10, IL-9, IL17A, IL17F, IL-21, IL-22 and IL-13) in mouse splenocyte co-cultures was determined as follows. Splenocytes obtained from two different mouse strains, C57BL/6 and DBA1, were mixed in culture in the presence or absence of 30 μM compound 10. Cytokine production of IFN-γ, IL-5, TNF-α, IL-2, IL-6, IL-4, IL-10, IL-9, IL-17A, IL-17F, IL-21, IL-22 and IL-13 was measured in the co-culture supernatant at day 4 and day 6 after mixing. Cytokine levels were determined by LEGENDplex™ bead-based immunoassays from BioLegend (San Diego, Calif.) according to the manufacturer's instructions.

human PBMCs [3] = assay: Intracellular cytokine staining in cell populations of human PBMC; conditions: 2 days after stimulation
Experimental: In a first experiment, human PBMCs from two different donors were incubated overnight in the presence or absence of compound 10 (10 μM). […] The cells were fixed four hours later and stained with antibodies for cell type markers (FITC-anti-CD3 and PerCP-C95.5-anti-CD4) and IL-2 (PE-anti-IL-2). The cells were analyzed by flow cytometry. The fraction of cells with intracellular IL-2 (PE-labeled) was then determined in the CD4^+ and CD8^+ T cell populations, as well as in non-T cells.
In a second experiment, human PBMCs from two different donors were stimulated with anti-CD3 and anti-CD28 antibodies and incubated in the absence or presence of increasing concentrations of compound 10 (0, 0.1, 0.3, 1.0, or 3.0 μM). The vesicular transport was blocked two days later with GolgiStop™. The cells were fixed four hours later and stained with antibodies for cell type markers (FITC-anti-CD3, PerCP-Cy5.5-anti-CD4, PE-anti-CD56 and Pacific Blue-anti-CD16) and either of the cytokines IL-2, IL-10 and IFN-γ (anti-cytokine antibodies were all APC-labeled). The cells were analyzed by flow cytometry. The fraction of cells with intracellular IL-2, IFN-γ, IL-10 and […] was then determined in different cellular populations.

human PBMCs [4] = assay: CTLA-4 expression on naive and memory T cells in human PBMC; conditions: 0.19-6.0 μM; one day post-stimulation; vs vehicle
Experimental: PBMC cells from a single donor were cultured overnight with additional irradiated antigen-presenting cells (APC) in the presence of various concentrations of GPR174 inhibitory compound 10 (0.019 to 6 μM) or equivalent concentrations of vehicle (DMSO). Anti-CD3 (OKT3) was then added to the cultures for an additional 24 hours. The cells were analyzed by flow cytometry for expression of FOXP3, CTLA-4, CD4, CD3, CD45RA and CD25.

GPR174 [5] = target: T1, GPR174 (Mus musculus, UniProt Q3U507); assay: IL-2 production from purified GPR174 WT and GPR174-KO mouse T cells with PS liposomes (FIG. 67); conditions: GPR174 WT mouse T cells, in presence of PS liposomes, FIG. 67
T1 construct: endogenous in cells; host or cells: purified mouse T cells from WT (and GPR174-KO) mice
T1 sequence (Q3U507 whole entry): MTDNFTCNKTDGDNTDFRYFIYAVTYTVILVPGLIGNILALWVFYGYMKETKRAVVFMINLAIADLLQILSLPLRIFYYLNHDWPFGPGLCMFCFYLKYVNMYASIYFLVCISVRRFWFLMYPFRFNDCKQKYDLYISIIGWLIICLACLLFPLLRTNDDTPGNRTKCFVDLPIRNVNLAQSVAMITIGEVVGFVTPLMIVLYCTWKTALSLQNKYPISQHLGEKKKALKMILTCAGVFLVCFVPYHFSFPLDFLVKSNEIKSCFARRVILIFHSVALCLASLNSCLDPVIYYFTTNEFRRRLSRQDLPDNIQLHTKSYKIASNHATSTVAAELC

GPR174 [6] = assay: as above

CC1CCN(c2cc(N3CCN(S(=O)(=O)c4ccccc4)CC3)c([N+](=O)[O-])cc2F)CC1 [compound 10]
percentage of FoxP3+Helios+ (nTreg) cells in the CD4+ cell population (human PBMCs [1]; Example 6, day 7 post-stimulation, 100 μM, vs vehicle): significantly reduced
percentage of FoxP3+Helios+ (nTreg) cells in the CD4+ cell population (human PBMCs [1]; Example 8, day 7, single donor, 3, 10, 30 μM): significantly reduced
FoxP3+Helios+ (nTreg) cells in the CD4+ cell population, fraction of vehicle (human PBMCs [1]; Example 9, day 7, eight donors, 30 μM): significantly reduced
percentage of FoxP3+Helios− cells in the CD4+ cell population (human PBMCs [1]; day 3 post-stimulation, 100 μM, vs vehicle): significantly increased
IL-2 in culture supernatants, GPR174 KO splenocytes (mouse splenocytes): no significant difference
IL-2 in culture supernatants, WT splenocytes (mouse splenocytes): increased
quantities of cytokines produced during splenocyte allogeneic stimulation [2]: strong alteration
intracellular IFN-γ production by cell type (human PBMCs [3]; 0.1-3.0 μM): enhanced in CD4 and CD8 positive T cells, as well as in NK cells
intracellular IL-2 production by cell type (human PBMCs [3]; 0.1-3.0 μM): induced specifically in T cells, both CD4 and CD8 positive
intracellular IL-10 production by cell type (human PBMCs [3]; 0.1-3.0 μM): induced specifically in T cells, both CD4 and CD8 positive
intracellular TNF-α production by cell type (human PBMCs [3]; 0.1-10 μM): enhanced in CD4 and CD8 positive T cells, as well as in NK cells
CTLA4 expression in memory Treg cells (CD45RA−FOXP3+) (human PBMCs [4]): reduced
CTLA4 expression in memory non-Treg cells (CD45RA−FOXP3−) (human PBMCs [4]): reduced
CTLA4 expression in naive Treg cells (CD45RA+FOXP3+) (human PBMCs [4]): reduced
CTLA4 expression in naive non-Treg cells (CD45RA+FOXP3−) (human PBMCs [4]): reduced
reversal of PS liposome-mediated suppression of IL-2, fold change (GPR174 [5]): 3.5 fold
effect on IL-2 in presence of PS liposomes, fold change (GPR174 [6]; GPR174-KO mouse T cells, FIG. 67): 0.9 fold
effect on T cell response in the absence of PS or GPR174 (GPR174 [6]; purified human and mouse T cells): negligible effect
